Test results reported in patent publication US10716859B2, “Excipients for stabilising viral particles, polypeptides or biological material” (priority 2010, dated 2020).

Experiments:
[1] = test system: Recombinant adenovirus expressing enhanced GFP; experiment: Recovered adenoviral activity after 7 days at 4° C. or 37° C. with glycinergics or SMM (Example 4); assay type: cell-based; conditions: one week at 37° C.
white cell fraction = experiment: White cell viability in human blood diluted with excipients, Guava Viacount (Example 18); assay type: cell-based; conditions: equal volume dilution, 25° C. for 30 minutes
[2] = 0.07 M, sole excipient (no sugars)
[3] = 0.07 M, with sugars (1M Sucrose, 100 mM Raffinose)
[4] = 0.70 M, sole excipient (no sugars)
[5] = 0.70 M, with sugars (1M Sucrose, 100 mM Raffinose)

Work on CN(C)CC(=O)O [DMG, N,N-Dimethylglycine] yielded a recovered viral activity [1, 2] of 27%, a recovered viral activity [1, 3] of 37% and a recovered viral activity [1, 4] of 41%. The recovered viral activity [1, 5] was 52% and the “effect on white cell viability in the blood sample” value (white cell fraction) was “no adverse effects”.
Work on C[S+](C)CC[C@H](N)C(=O)O [SMM, S-methyl-L-methionine] yielded a recovered viral activity [1, 2] of 33% and a recovered viral activity ([1]; 0.23 M, sole excipient (no sugars)) of 43%.
C[N+](C)(C)CC(=O)O [TMG, N,N,N-trimethylglycine] gave a recovered viral activity [1, 2] of 21%, a recovered viral activity [1, 3] of 45% and a recovered viral activity [1, 4] of 45%. The recovered viral activity [1, 5] was 38.7%.
NCC(=O)O [glycine, Glycine, reference compound] showed a recovered viral activity [1, 2] of 29%, a recovered viral activity [1, 3] of 41% and a recovered viral activity [1, 4] of 45%. It also gave a recovered viral activity [1, 5] of 54%.
For CNCC(=O)O [sarcosine, N-Methyl-glycine], the recovered viral activity [1, 2] was 29%, the recovered viral activity [1, 3] was 37% and the recovered viral activity [1, 4] was 49%. The recovered viral activity [1, 5] was 56%.
